Results on one compound are retold here after patent US12162918B2, “Periostin compounds for the treatment of haematological complications” (Chemotherapeutisches Forschungsinstitut Georg-Speyer-Haus, priority 2018, dated 2024).

The test system of data set [1] is Nestin-GFP or Col2.3 kb GFP mice. The data set can be described thus: Enumeration of Nestin-GFP+ MSC and Col2.3 kb GFP+ osteoblastic cells in bones. It is filed as in vivo. The settings on record: warfarin 14 days. The source says:
7 to 10 week old C57BL6/N (CD45.2) or SJL (CD45.1; B6.SJL-Ptprca Pepcb/BoyJ), Col1a1 2.3 kb-GFP (kind gift from D. Rowe), Nestin-GFP (Mignone et al., 2004) and periostin knockout mice (kind gift from Juerg Huelsken) were used for these experiments. NOD SCID interleukin (IL)-2 receptor γ deficient (NSG) mice were purchased from Charles River Laboratories (Sulzfeld, Germany) and bred in our facility. All animal studies were approved by the local German government (Regierungspräsidium Darmstadt) in Hessen, Germany, and by the Institutional Animal Care and Use Committee (IACUC) of Boston University.
(§1) 0.5 mg/kg/d or 0.05 mg/kg/d of warfarin, resuspended in phosphate-buffered saline was administered to mice via subcutaneously implanted osmotic minipumps (ALZET minipumps, Cupertino, CA). The osmotic minipumps were changed after 14 days (if the experiment went beyond 14 days of treatment). Sham operated (skin incision and suture) mice served as controls. Warfarin treatment continued for 10-14 days. In the xenotransplantation experiments the mice were treated with warfarin via the drinking water (or normal drinking water) at a dose of 0.72 mg/100 ml for a total of 3 days a week (Pfeilschifter et al., 2011).

The subject of another data set is murine stroma cells. Briefly: Differentiation, gene expression and apoptosis of stroma and calvaria cells in presence of warfarin. It is filed as cell-based. Here is the method: Concentrations of drugs for in vitro use were 2 μM for warfarin, 2 μg/ml for periostin, 5 μM for the AKT inhibitor MK-2206 (Selleck Chemicals, Houston, TX) and cilengitide (Selleck Chemicals, Houston, TX, Cat. No. #S7077) was used at 0.05 μM. Phosphate buffered saline served as the vehicle control.
Bones from mice were crushed and plated and hematopoietic cells were removed the following day. As described (Mukherjee et al., 2008), after reaching confluence the stroma cells were cultured in α-MEM medium containing 10 mM β-glycerolphosphate, 10 nM dexamethasone and 50 μg/ml ascorbic acid for differentiation into osteoblastic cells (Mukherjee et al., 2008) or 500 nM insulin and 100 nM dexamethasone for differentiation into adipocytes. Differentiation was tested after 14-20 days by staining for von Kossa in the case of osteoblastic cells and Oil Red O in the case of adipocytes following standard staining protocols. Osteoclasts were purified from bone marrow macrophages, following standard protocols. Briefly, bone marrow cells were isolated from the femora and tibiae of 6-8 week old C57/B16 animals and cultured overnight at 37 C in α-MEM medium containing 10% fetal bovine serum and 1% antibiotic/antimycotic. The following day non-adherent cells were collected and separated by centrifugation on 50% Ficoll-Paque. Bone marrow-derived macrophages were seeded at 20,000 cells/well and cultured for 3 days in the presence of macrophage colony-stimulating factor (M-CSF) (50 ng/ml). On day 4 cells were also treated with receptor activator of nuclear factor kappa-B ligand (RANKL) (50 ng/ml) for an additional 4-5 days prior to tartrate-resistant acid phosphatase (TRAP) staining. Cells were treated with vehicle or warfarin (2 μM) for the entire culture period. […]
Quantitative PCR was performed using standard protocols.

The subject of another data set is wildtype mice. Briefly: Complete blood count and flow cytometry of peripheral blood and bone marrow of treated mice. The settings on record: for absolute number of monocytes in peripheral blood / absolute number of leukocytes in peripheral blood: 14 days after initiation. It is filed as in vivo. Here is the method: as §1
5-fluorouracil was intraperitoneally injected every week at a dose of 75 mg/kg for a total of 4 doses or as a one time dose of 200 mg/kg. Recombinant mouse periostin (R&D Systems, Minneapolis, MN, cat. no. 2955-F2), produced in the Sf21 (baculovirus)-derived insect cell line, was administered intravenously at a dose of 2-4 μg per day and vitamin K was given at a dose of 15 mg/kg by oral gavage for four consecutive days.
We assessed the complete blood count of vehicle or warfarin-treated mice using a complete blood count analyzer (Scil Vet ABC, Gurnee, IL). Peripheral blood and bone marrow samples were stained with antibodies for flow cytometry, which was performed on a BD LSR Fortessa (BD Biosciences, Heidelberg, Germany). The lineage antibody cocktail contained antibodies to B220, CD5, Ter119, F4/80 and CD11b. Engraftment of human cells in NSG mice was assessed using anti-human CD45 (BD Biosciences, San José, CA).
(In flow cytometry, cells or beads pass a laser one at a time.)

For a further data set, the system named is periostin. The data set can be described thus: Anti-Gla coimmunoprecipitation of conditioned medium from stroma cells. The note with it: warfarin-treated stroma cells, anti-gla antibody. It is filed as cell-based, mice.
The subject of the next data set is CD45.1+ LKS cells. The data set can be described thus: Transplantation of sorted LKS or Lin− cells from warfarin-treated mice into untreated recipients. It is filed as in vivo. Here is the method:
SJL (CD45.1) donor mice were treated with vehicle or warfarin, euthanized and long bones were flushed, followed by RBC lysis (Life Technologies, Darmstadt, Germany). For competitive transplantation 2×10^6 total BM cells from SJL mice were co-transplanted with 1×10^6 CD45.2+ BM competitor cells into lethally irradiated (900 cGy) C57BL/6N (CD45.2+) recipient mice. For serial transplantation 2×10^6 total CD45.1+ BM cells were transplanted into lethally irradiated C57BL/6N recipient mice. Cell engraftment and chimerism were assessed by flow cytometry of peripheral blood leukocytes for CD45.1 and CD45.2 after 4, 8, 12 and 16 weeks post transplantation. In the limiting dilution experiment we treated primary CD45.1+ donor mice with vehicle or warfarin for 14 days and, consequently, transplanted 5×10^5, 12.5×10^4, 6×10^4 and 1.5×10^4 pooled BM cells into 5 CD45.2+ recipients per group adding 5×10^5 CD45.2+ supporter cells. In indicated experiments we transplanted 5,000 or 10,000 sorted CD45.1+ LKS cells from mice treated with vehicle or warfarin plus 1×10^6 CD45.2+ total BM supporter cells into CD45.2+ recipient mice.

Molecules are shown by their SMILES.

As for `CC(=O)CC(c1ccccc1)c1c(O)c2ccccc2oc1=O` (stereo not shown) [warfarin], the “number of Col2.3 kb+ osteoblastic cells” value in data set [1] is “n.s. and no reduction”. The “number of Nestin+ MSC” value in data set [1] (P=0.047) is “significant reduction”. In addition, the “apoptosis of stroma cells in vitro” value in the data set with murine stroma cells (P=0.05) is “modest, but significant increase”. The “differentiation of murine stroma cells to adipocytes and osteoblasts” value in the data set on murine stroma cells (in presence of warfarin) is given as “significantly compromised”. The “relative expression of osteoblastic genes (Runx2, Alpl, Col1a1, Osx, Spp1, Bglap and others)” value in the data set on murine stroma cells (primary calvaria cells, warfarin vs vehicle) is “significantly reduced”. Moreover, the “absolute count and percentage of LKS, LKS SLAM and myeloid progenitor cells in the bone marrow” value with wildtype mice (2 and 4 weeks, controls vs warfarin-treated mice) is on record as “did not significantly differ”. Further, in the data set with wildtype mice (after initiation of treatment), the “time at which the decrease in leukocytes and monocytes appeared” value is given as “as early as three days”. The “absolute number of monocytes in peripheral blood” value with wildtype mice (higher dose (0.5 mg/kg), P=0.007) is reported as “reduced”; with wildtype mice (lower dose (0.05 mg/kg)), “reduced”. In addition, the “absolute number of leukocytes in peripheral blood” value with wildtype mice (higher dose (0.5 mg/kg), P=0.008) is “reduced”; in the data set with wildtype mice (lower dose (0.05 mg/kg)), “reduced”. For the same compound, in the data set with wildtype mice (oral versus subcutaneous), the “leukocyte and monocyte counts, oral versus subcutaneous administration” value is “similarly reduced”. In the data set with wildtype mice (subcutaneous versus oral treatment), the lethal hemorrhagic complications entry was “fewer lethal hemorrhagic complications”. In addition, in the data set on wildtype mice (warfarin-treated mice), the lymphocyte count result is reported as “decreased, albeit to a lesser extent than myeloid cells”. Moreover, the “percentage of CD11b+ myeloid cells in peripheral blood” value in the data set on wildtype mice (warfarin-treated vs control mice, P=0.003) is reported as “decreased”. Besides, the “γ-carboxylated periostin in conditioned medium” value in the data set with periostin is “no γ-carboxylated periostin could be detected”. In addition, the “percentage of Lin− cells in the S/G2/M phases after transplantation into an untreated BMM” value in the data set with CD45.1+ LKS cells (Lin− cells from a warfarin-treated BMM, P=0.04) is “increase”. In the data set with CD45.1+ LKS cells (equal numbers of LKS cells from warfarin-treated donors, one month after transplantation, P=0.03), the “percentage of CD45.1+ donor cells in peripheral blood of recipients” value is “higher percentage”. Moreover, the “reconstitution by warfarin-treated LKS cells” value with CD45.1+ LKS cells (higher number of transplanted LKS cells, 16 weeks post transplantation) was “lower than in the case of control LKS cells”.
